Data from article PMC10786919, “Design-rules for stapled peptides with in vivo activity and their application to Mdm2/X antagonists” (Nature Communications, 2024).
In brackets after ≈: the same amount, converted by molar mass. Read-outs that look alike come from different tables or passages of the source. Positions of bridges follow the written chain, without caps; N, C: chain ends. Non-standard residues stand in square brackets, D forms with d. Residues, ends and D or L forms follow the SMILES beside them. Lys(N3) = [N-]=[N+]=NCCCC[C@H](N)C(=O)O; R8 = C=CCCCCCC[C@@](C)(N)C(=O)O; Cba = N[C@@H](CC1CCC1)C(=O)O; S5 = C=CCCC[C@](C)(N)C(=O)O; βAla = NCCC(=O)O

Key:
[1] = Lactate dehydrogenase (LDH) release assay; type: cell-based; conditions: LDH: Cytotoxicity assay EC50
Procedure, shortened: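 HCT116 cells stably carrying a p53-responsive β-lactamase reporter, seeded at 8000 cells/well, exposed to compound with 0.5% final DMSO. LDH release read with the CytoTox-ONE membrane integrity kit. Values are geometric means of at least three biological replicates.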

[2] = Solubility assay (kinetic solubility, PBS pH 7); type: physicochemical; conditions: for solubility kinetic: pH 7, aqueous buffer, kinetic from dmso stock, read-out: Solubility
Procedure, shortened: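 Quantitation uses an external standard at 100 µM, prepared from 10 mM stock in acetonitrile:methanol:DMSO (10:80:10). Solubility (µM) = (peak area of sample ÷ peak area of standard) × standard concentration.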

[3] = tested on: Ca Ski cell line; conditions: 72 h
Protocol: (§1) The medium for CellSensor™ p53RE-bla HCT-116 cells was McCoy’s 5 A Medium (GIBCO16600-002) supplied with 10% FBS (Hyclone, SH30406.05), 100 U/100ug/ml of Pen/Strep (SolarBio, P1400) and 5 μg/ml of blasticidin (GIBCO, A11139). The medium for Ca Ski cells was RPMI1640 (Hyclone, SH3080901B) supplied with 10% FBS and 100 U/100ug/ml of Pen/Strep. All cells were kept in humidified incubators with 5% CO2 at 37 °C. Culture media was changed after one day of subculturing and cells were passed again when there was 70–80% confluence. One day before the assay, the cells were trypsinized, collected, counted and viability was determined. […] The plates were kept in humidified incubators with 5% CO2 at 37 °C overnight. Compounds were prepared as a 10 point, 3x serial dilution in 100% DMSO, starting from a top concentration of 10 mM. […] At the end of the incubation the assay plate was equilibrated at room temperature for approximately 30 minutes prior to the addition of 25 uL of CellTiter-Glo® 2.0 Reagent. The assay plate was mixed for 2 minutes on an orbital shaker to induce cell lysis. Next, the plate was incubated at room temperature for 10 minutes to stabilize the luminescent signal prior to recording the luminescence on a plate reader.

[4] = tested on: CellSensor p53RE-bla HCT-116 Cell Line; conditions: 72 h
Protocol: as §1

[5] = in vitro; conditions: Nanoclick permeability assay EC50
Procedure, shortened: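 Azido-peptide permeability was read as loss of NanoBRET signal (donor 450 nm, acceptor 610 nm) after adding NanoBret618-azide at 10 μM final.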

[6] = physchem
[7] = Experimental LogD (partition coefficient); conditions: for logD: not stated, Partition Coeff LogD

Row | SMILES | EC50 [1] | solubility kinetic ([2]; pH 7, PBS) | EC50 [3] | EC50 [4] | cell entry EC50 [5] | EPSA [6] | logD [7] | Solubility ([2]; pH 7, PBS) | Partition Coeff LogD [7] | Solubility [2] | Partition Coeff LogD ([7]; experimental)
1 | CC(=O)N[C@@H](CCCCN=[N+]=[N-])C(=O)NCCC(=O)N[C@@H](CC(C)C)C(=O)N[C@H](C(=O)N[C@@H](Cc1ccccc1)C(=O)N[C@]1(C)CCCCCCC=CCCC[C@@](C)(C(=O)N[C@@H](Cc2c[nH]c3ccccc23)C(=O)N[C@@H](C)C(=O)N[C@@H](C)C(N)=O)NC(=O)[C@H](CC2CCC2)NC(=O)[C@H](CCC(N)=O)NC(=O)[C@H](C)NC(=O)[C@H](Cc2c[nH]c3ccccc23)NC(=O)[C@H](Cc2ccc(O)cc2)NC(=O)[C@H](CCC(=O)O)NC1=O)[C@@H](C)O [MP-188] (Ac-[Lys(N3)][βAla]LTF[R8]EYWAQ[Cba][S5]WAA-NH2; staple 6-13) | > 50 µM | 50 µM (≈ 103 µg/mL) | 30.4 µM | 4.79 µM | 0.374 µM | 249 A^2 | 3.33 | – | – | – | –
2 | CC(=O)N[C@@H](CCCCN=[N+]=[N-])C(=O)NCCC(=O)N[C@@H](CC(C)C)C(=O)N[C@H](C(=O)N[C@@H](Cc1ccccc1)C(=O)N[C@]1(C)CCCCCCC=CCCC[C@@](C)(C(=O)N[C@@H](CO)C(=O)N[C@@H](C)C(=O)N[C@@H](C)C(N)=O)NC(=O)[C@H](CC2CCC2)NC(=O)[C@H](CCC(N)=O)NC(=O)[C@H](CCCNC(=N)N)NC(=O)[C@H](Cc2c[nH]c3ccccc23)NC(=O)[C@H](Cc2ccc(O)cc2)NC(=O)[C@H](CCC(=O)O)NC1=O)[C@@H](C)O [MP-555] (Ac-[Lys(N3)][βAla]LTF[R8]EYWRQ[Cba][S5]SAA-NH2; staple 6-13) | > 50 µM | 2 µM (≈ 4.11 µg/mL) | > 49.8 µM | 6.25 µM | 0.249 µM | 220 A^2 | 2.92 | – | – | – | –
3 | CC(=O)N[C@@H](CCCCN=[N+]=[N-])C(=O)NCCC(=O)N[C@@H](CC(C)C)C(=O)N[C@H](C(=O)N[C@@H](Cc1ccccc1)C(=O)N[C@]1(C)CCCCCCC=CCCC[C@@](C)(C(=O)N[C@@H](CO)C(=O)N[C@@H](C)C(=O)N[C@@H](C)C(N)=O)NC(=O)[C@H](CC2CCC2)NC(=O)[C@H](CCC(N)=O)NC(=O)[C@H](C)NC(=O)[C@H](Cc2c[nH]c3ccccc23)NC(=O)[C@H](Cc2ccc(O)cc2)NC(=O)[C@H](CCCNC(=N)N)NC1=O)[C@@H](C)O [MP-554] (Ac-[Lys(N3)][βAla]LTF[R8]RYWAQ[Cba][S5]SAA-NH2; staple 6-13) | 30.4 µM | – | 11.4 µM | 5.79 µM | 0.586 µM | 215 A^2 | 3.28 | Poorly Behaved | – | – | –
4 | CC(=O)N[C@@H](CCCCN=[N+]=[N-])C(=O)NCCC(=O)N[C@@H](CC(C)C)C(=O)N[C@H](C(=O)N[C@@H](Cc1ccccc1)C(=O)N[C@]1(C)CCCCCCC=CCCC[C@@](C)(C(=O)N[C@@H](CCCNC(=N)N)C(=O)N[C@@H](C)C(=O)N[C@@H](C)C(N)=O)NC(=O)[C@H](CC2CCC2)NC(=O)[C@H](CCC(N)=O)NC(=O)[C@H](C)NC(=O)[C@H](Cc2c[nH]c3ccccc23)NC(=O)[C@H](Cc2ccc(O)cc2)NC(=O)[C@H](CCC(=O)O)NC1=O)[C@@H](C)O [MP-557] (Ac-[Lys(N3)][βAla]LTF[R8]EYWAQ[Cba][S5]RAA-NH2; staple 6-13) | > 50 µM | – | > 49.8 µM | 2.04 µM | 0.136 µM | 219 A^2 | – | Poorly Behaved | Poorly Behaved | – | –
5 | CC(=O)N[C@@H](CCCCN=[N+]=[N-])C(=O)NCCC(=O)N[C@@H](CC(C)C)C(=O)N[C@H](C(=O)N[C@@H](Cc1ccccc1)C(=O)N[C@]1(C)CCCCCCC=CCCC[C@@](C)(C(=O)N[C@@H](CO)C(=O)N[C@@H](C)C(=O)N[C@@H](C)C(N)=O)NC(=O)[C@H](CC2CCC2)NC(=O)[C@H](CCC(=O)O)NC(=O)[C@H](C)NC(=O)[C@H](Cc2c[nH]c3ccccc23)NC(=O)[C@H](Cc2ccc(O)cc2)NC(=O)[C@H](CCC(=O)O)NC1=O)[C@@H](C)O [MP-181] | > 50 µM | 179 µM (≈ 353 µg/mL) | > 49.8 µM | 4.64 µM | 0.304 µM | 249 A^2 | 2.74 | – | – | – | –
6 | CC(=O)N[C@@H](CCCCN=[N+]=[N-])C(=O)NCCC(=O)N[C@@H](CC(C)C)C(=O)N[C@H](C(=O)N[C@@H](Cc1ccccc1)C(=O)N[C@]1(C)CCCCCCC=CCCC[C@@](C)(C(=O)N[C@@H](CO)C(=O)N[C@@H](C)C(=O)N[C@@H](C)C(N)=O)NC(=O)[C@H](CC2CCC2)NC(=O)[C@H](Cc2c[nH]c3ccccc23)NC(=O)[C@H](C)NC(=O)[C@H](Cc2c[nH]c3ccccc23)NC(=O)[C@H](Cc2ccc(O)cc2)NC(=O)[C@H](CCC(=O)O)NC1=O)[C@@H](C)O [MP-187] (Ac-[Lys(N3)][βAla]LTF[R8]EYWAW[Cba][S5]SAA-NH2; staple 6-13) | > 50 µM | 3.5 µM (≈ 7.1 µg/mL) | > 49.8 µM | 7.27 µM | 0.247 µM | 242 A^2 | 3.14 | – | – | – | –
7 | CC(=O)N[C@@H](CCCCN=[N+]=[N-])C(=O)NCCC(=O)N[C@@H](CC(C)C)C(=O)N[C@H](C(=O)N[C@@H](Cc1ccccc1)C(=O)N[C@]1(C)CCCCCCC=CCCC[C@@](C)(C(=O)N[C@@H](CCC(=O)O)C(=O)N[C@@H](C)C(=O)N[C@@H](C)C(N)=O)NC(=O)[C@H](CC2CCC2)NC(=O)[C@H](CCC(N)=O)NC(=O)[C@H](C)NC(=O)[C@H](Cc2c[nH]c3ccccc23)NC(=O)[C@H](Cc2ccc(O)cc2)NC(=O)[C@H](CCC(=O)O)NC1=O)[C@@H](C)O [MP-182] | > 50 µM | 163 µM (≈ 328 µg/mL) | > 49.8 µM | 1.31 µM | 0.223 µM | 251 A^2 | 2.5 | – | – | – | –
8 | CC(=O)N[C@@H](CCCCN=[N+]=[N-])C(=O)NCCC(=O)N[C@@H](Cc1c[nH]c2ccccc12)C(=O)N[C@H](C(=O)N[C@@H](Cc1ccccc1)C(=O)N[C@]1(C)CCCCCCC=CCCC[C@@](C)(C(=O)N[C@@H](CO)C(=O)N[C@@H](C)C(=O)N[C@@H](C)C(N)=O)NC(=O)[C@H](CC2CCC2)NC(=O)[C@H](CCC(N)=O)NC(=O)[C@H](C)NC(=O)[C@H](Cc2c[nH]c3ccccc23)NC(=O)[C@H](Cc2ccc(O)cc2)NC(=O)[C@H](CCC(=O)O)NC1=O)[C@@H](C)O [MP-183] (Ac-[Lys(N3)][βAla]WTF[R8]EYWAQ[Cba][S5]SAA-NH2; staple 6-13) | > 50 µM | 19 µM (≈ 38.8 µg/mL) | 38.5 µM | 5.74 µM | 0.229 µM | 247 A^2 | 3.04 | – | – | – | –
9 | CC(=O)N[C@@H](CCCCN=[N+]=[N-])C(=O)NCCC(=O)N[C@@H](CC(C)C)C(=O)N[C@H](C(=O)N[C@@H](Cc1ccccc1)C(=O)N[C@]1(C)CCCCCCC=CCCC[C@@](C)(C(=O)N[C@@H](C)C(=O)N[C@@H](C)C(=O)N[C@@H](C)C(N)=O)NC(=O)[C@H](CC2CCC2)NC(=O)[C@H](CCC(N)=O)NC(=O)[C@H](C)NC(=O)[C@H](Cc2c[nH]c3ccccc23)NC(=O)[C@H](Cc2ccc(O)cc2)NC(=O)[C@H](C)NC1=O)[C@@H](C)O [MP-8965] (Ac-[Lys(N3)][βAla]LTF[R8]AYWAQ[Cba][S5]AAA-NH2; staple 6-13) | > 50 µM | – | > 49.8 µM | 0.855 µM | 0.112 µM | 205 A^2 | – | Poorly Behaved | Poorly Behaved | P.B. | P.B.
10 | CC(=O)N[C@@H](CCCCN=[N+]=[N-])C(=O)NCCC(=O)N[C@@H](CC(C)C)C(=O)N[C@@H](CCCNC(=N)N)C(=O)N[C@@H](Cc1ccccc1)C(=O)N[C@]1(C)CCCCCCC=CCCC[C@@](C)(C(=O)N[C@@H](CO)C(=O)N[C@@H](C)C(=O)N[C@@H](C)C(N)=O)NC(=O)[C@H](CC2CCC2)NC(=O)[C@H](CCC(N)=O)NC(=O)[C@H](C)NC(=O)[C@H](Cc2c[nH]c3ccccc23)NC(=O)[C@H](Cc2ccc(O)cc2)NC(=O)[C@H](CCC(=O)O)NC1=O [MP-553] (Ac-[Lys(N3)][βAla]LRF[R8]EYWAQ[Cba][S5]SAA-NH2; staple 6-13) | > 50 µM | – | > 49.8 µM | 6.78 µM | 0.174 µM | 232 A^2 | 2.86 | Poorly Behaved | – | – | –
